The record followed here is US7569578B2, “Heterocyclic anti-migraine agents” (Bristol-Meyers Squibb Company, priority 2003, dated 2009).

The target in this experiment is T1, Human CGRP1 Receptor (Homo sapiens, UniProt O60894+Q16602).
T1 construct: endogenous in cells; host or cells: SK-N-MC cells (membrane homogenate)
Kind of experiment: CGRP Binding Assay ([125I]-CGRP radioligand displacement, SK-N-MC membrane homogenate). Conditions: [125I]-CGRP displacement, SK-N-MC homogenate, room temperature 2 h; read-out: Human CGRP1 Receptor IC50. In general terms: Loss of bound radioactivity is the signal in a displacement assay; it reports binding, not function.

T1 sequence (Q16602 23-461): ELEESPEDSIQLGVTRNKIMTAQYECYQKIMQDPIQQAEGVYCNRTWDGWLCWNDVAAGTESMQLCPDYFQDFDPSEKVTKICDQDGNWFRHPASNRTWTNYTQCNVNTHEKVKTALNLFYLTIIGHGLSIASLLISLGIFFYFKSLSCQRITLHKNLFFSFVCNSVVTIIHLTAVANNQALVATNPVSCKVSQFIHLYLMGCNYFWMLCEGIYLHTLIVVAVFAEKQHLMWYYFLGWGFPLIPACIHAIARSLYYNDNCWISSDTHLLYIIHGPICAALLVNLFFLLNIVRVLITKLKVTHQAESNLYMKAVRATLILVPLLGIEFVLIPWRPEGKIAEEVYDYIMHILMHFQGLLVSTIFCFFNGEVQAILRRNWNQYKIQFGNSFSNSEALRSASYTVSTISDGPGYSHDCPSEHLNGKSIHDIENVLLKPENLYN
T1 sequence (O60894 27-148): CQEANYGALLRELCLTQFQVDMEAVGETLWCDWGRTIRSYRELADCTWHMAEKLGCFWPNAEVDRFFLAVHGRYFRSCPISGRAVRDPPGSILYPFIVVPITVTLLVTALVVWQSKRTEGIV

As a reminder, the IC50 is the concentration that gives 50% inhibition. Turning to `Cc1cc(CC(NC(=O)N2CCC(N3Cc4ccccc4NC3=O)CC2)c2nc(Br)c(Br)[nH]2)cc2cn[nH]c12` (racemic) [Example 87, (±)-N-(1-(4,5-Dibromo-1H-imidazol-2-yl)-2-(7-methyl-1H-indazol-5-yl)ethyl)-4-(2-oxo-1,2-dihydroquinazolin-3(4H)-yl)piperidine-1-carboxamide], the IC50 was less than 10 nM.

As for `Cc1cc(CC(NC(=O)N2CCC(N3Cc4ccccc4NC3=O)CC2)c2ncc(Br)n2Cc2cc(F)cc(F)c2)cc2c[nH]nc12` (racemic) [Example 88, (±)-N-(1-(1-(3,5-Difluorobenzyl)-5-bromo-1H-imidazol-2-yl)-2-(7-methyl-2H-indazol-5-yl)ethyl)-4-(2-oxo-1,2-dihydroquinazolin-3(4H)-yl)piperidine-1-carboxamide], the IC50 is less than 10 nM. With `Cc1cn(Cc2cccc(F)c2)c(C(Cc2cc(C)c3[nH]ncc3c2)NC(=O)N2CCC(N3Cc4ccccc4NC3=O)CC2)n1` (racemic) [Example 89, (±)-N-(1-(1-(3-Fluorobenzyl)-4-methyl-1H-imidazol-2-yl)-2-(7-methyl-1H-indazol-5-yl)ethyl)-4-(2-oxo-1,2-dihydroquinazolin-3(4H)-yl)piperidine-1-carboxamide] the figure was less than 10 nM.

For `Cc1c[nH]c(C(Cc2cc(C)c3[nH]ncc3c2)NC(=O)N2CCC(N3Cc4ccccc4NC3=O)CC2)n1` (racemic) [Example 90, (±)-N-(1-(4-Methyl-1H-imidazol-2-yl)-2-(7-methyl-1H-indazol-5-yl)ethyl)-4-(2-oxo-1,2-dihydroquinazolin-3(4H)-yl)piperidine-1-carboxamide], the IC50 is 100 to 1000 nM. For the compound `Cc1cc(CC(NC(=O)N2CCC(N3Cc4ccccc4NC3=O)CC2)c2nccn2Cc2cccnc2)cc2cn[nH]c12` (racemic) [Example 91, (±)-N-(2-(7-Methyl-1H-indazol-5-yl)-1-(1-(pyridin-3-ylmethyl)-1H-imidazol-2-yl)ethyl)-4-(2-oxo-1,2-dihydroquinazolin-3(4H)-yl)piperidine-1-carboxamide], the IC50 is less than 10 nM.

As to `Cc1cc(CC(NC(=O)N2CCC(N3Cc4ccccc4NC3=O)CC2)c2nccn2Cc2ccccn2)cc2cn[nH]c12` (racemic) [Example 92, (±)-N-(2-(7-Methyl-1H-indazol-5-yl)-1-(1-(pyridin-2-ylmethyl)-1H-imidazol-2-yl)ethyl)-4-(2-oxo-1,2-dihydroquinazolin-3(4H)-yl)piperidine-1-carboxamide], the IC50 was less than 10 nM. Take `Cc1cc(Cn2ccnc2C(Cc2cc(C)c3[nH]ncc3c2)NC(=O)N2CCC(N3Cc4ccccc4NC3=O)CC2)cc(Cl)n1` (racemic) [Example 93, (±)-N-(1-(1-((2-Chloro-6-methylpyridin-4-yl)methyl)-1H-imidazol-2-yl)-2-(7-methyl-1H-indazol-5-yl)ethyl)-4-(2-oxo-1,2-dihydroquinazolin-3(4H)-yl)piperidine-1-carboxamide]: the IC50 was less than 10 nM. Under `Cc1cc(Cn2ccnc2C(Cc2cc(C)c3[nH]ncc3c2)NC(=O)N2CCC(N3Cc4ccccc4NC3=O)CC2)ccn1` (racemic) [Example 94, (±)-N-(2-(7-Methyl-1H-indazol-5-yl)-1-(1-((2-methylpyridin-4-yl)methyl)-1H-imidazol-2-yl)ethyl)-4-(2-oxo-1,2-dihydroquinazolin-3(4H)-yl)piperidine-1-carboxamide] stands less than 10 nM. Under `Cc1cc(CC(NC(=O)N2CCC(c3cc4ccccc4[nH]c3=O)CC2)c2cc3ccccc3cn2)cc2cn[nH]c12` (stereo not drawn) [Example 36, N-(1-(Isoquinolin-3-yl)-2-(7-methyl-1H-indazol-5-yl)ethyl)-4-(2-oxo-1,2-dihydroquinolin-3-yl)piperidine-1-carboxamide] stands less than 10 nM.

With `Cc1cc(CC(NC(=O)N2CCC(N3Cc4ccccc4NC3=O)CC2)c2cc3ccccc3cn2)cc2cn[nH]c12` (stereo not drawn) [Example 50, N-(1-(isoquinolin-3-yl)-2-(7-methyl-1H-indazol-5-yl)ethyl)-4-(2-oxo-1,2-dihydroquinazolin-3(4H)-yl)piperidine-1-carboxamide], the IC50 was less than 10 nM.

Regarding `Cc1cc(CC(NC(=O)N2CCC(N3Cc4cccc(F)c4NC3=O)CC2)c2cc3ccccc3cn2)cc2cn[nH]c12` (stereo not drawn) [Example 51, 4-(8-fluoro-2-oxo-1,2-dihydroquinazolin-3(4H)-yl)-N-(1-(isoquinolin-3-yl)-2-(7-methyl-1H-indazol-5-yl)ethyl)piperidine-1-carboxamide], the half-maximal inhibitory concentration (IC50) is less than 10 nM. `Cc1cc(CC(OC(=O)N2CCC(N3Cc4cccc(F)c4NC3=O)CC2)c2cc3ccccc3cn2)cc2cn[nH]c12` (stereo not drawn) [Example 52, 1-(Isoquinolin-3-yl)-2-(7-methyl-1H-indazol-5-yl)ethyl 4-(8-fluoro-2-oxo-1,2-dihydroquinazolin-3(4H)-yl)piperidine-1-carboxylate]: the IC50 is less than 10 nM. As for `Cc1cc(CC(OC(=O)N2CCC(N3Cc4ccccc4NC3=O)CC2)c2cc3ccccc3cn2)cc2cn[nH]c12` (stereo not drawn) [Example 53, 1-(Isoquinolin-3-yl)-2-(7-methyl-1H-indazol-5-yl)ethyl 4-(2-oxo-1,2-dihydroquinazolin-3(4H)-yl)piperidine-1-carboxylate], the concentration for half-maximal inhibition (IC50) was less than 10 nM. Under `Cc1cc(CC(OC(=O)N2CCC(N3Cc4ccccc4NC3=O)CC2)c2ccccn2)cc2cn[nH]c12` (stereo not drawn) [Example 54, 2-(7-methyl-1H-indazol-5-yl)-1-(pyridin-2-yl)ethyl 4-(2-oxo-1,2-dihydroquinazolin-3(4H)-yl)piperidine-1-carboxylate] stands less than 10 nM; under `Cc1cc(CC(OC(=O)N2CCC(N3Cc4cccc(F)c4NC3=O)CC2)c2ccccn2)cc2cn[nH]c12` (stereo not drawn) [Example 55, 2-(7-methyl-1H-indazol-5-yl)-1-(pyridin-2-yl)ethyl 4-(8-fluoro-2-oxo-1,2-dihydroquinazolin-3(4H)-yl)piperidine-1-carboxylate], less than 10 nM; under `Cc1cc(CC(OC(=O)N2CCC(N3Cc4ccccc4NC3=O)CC2)c2ccco2)cc2cn[nH]c12` (stereo not drawn) [Example 56, 1-(Furan-2-yl)-2-(7-methyl-1H-indazol-5-yl)ethyl 4-(2-oxo-1,2-dihydroquinazolin-3(4H)-yl)piperidine-1-carboxylate], 10 to 100 nM.

Take `Cc1cc(CC(OC(=O)N2CCC(N3Cc4ccccc4NC3=O)CC2)c2ccncc2)cc2cn[nH]c12` (stereo not drawn) [Example 57, 2-(7-Methyl-1H-indazol-5-yl)-1-(pyridin-4-yl)ethyl 4-(2-oxo-1,2-dihydroquinazolin-3(4H)-yl)piperidine-1-carboxylate]: the half-maximal inhibitory concentration (IC50) lay within 100 to 1000 nM. As to `Cc1cc(CC(OC(=O)N2CCC(N3Cc4ccccc4NC3=O)CC2)c2cccnc2)cc2cn[nH]c12` (stereo not drawn) [Example 58, 2-(7-Methyl-1H-indazol-5-yl)-1-(pyridin-3-yl)ethyl 4-(2-oxo-1,2-dihydroquinazolin-3(4H)-yl)piperidine-1-carboxylate], the IC50 lay within 100 to 1000 nM.

`Cc1cc(CC(OC(=O)N2CCC(N3Cc4cccc(F)c4NC3=O)CC2)c2cccnc2)cc2cn[nH]c12` (stereo not drawn) [Example 59, 2-(7-Methyl-1H-indazol-5-yl)-1-(pyridin-3-yl)ethyl 4-(8-fluoro-2-oxo-1,2-dihydroquinazolin-3(4H)-yl)piperidine-1-carboxylate]: the IC50 was in the range of 100 to 1000 nM. On to `Cc1cc(CC(OC(=O)N2CCC(N3Cc4cccc(F)c4NC3=O)CC2)c2ccco2)cc2cn[nH]c12` (stereo not drawn) [Example 60, 1-(Furan-2-yl)-2-(7-methyl-1H-indazol-5-yl)ethyl 4-(8-fluoro-2-oxo-1,2-dihydroquinazolin-3(4H)-yl)piperidine-1-carboxylate], for which the IC50 lay within 10 to 100 nM. With `Cc1cc(CC(OC(=O)N2CCC(N3Cc4ccccc4NC3=O)CC2)c2ccc3ccccc3n2)cc2cn[nH]c12` (stereo not drawn) [Example 61, 2-(7-Methyl-1H-indazol-5-yl)-1-(quinolin-2-yl)ethyl 4-(2-oxo-1,2-dihydroquinazolin-3(4H)-yl)piperidine-1-carboxylate] the figure was less than 10 nM; with `Cc1cc(C)nc(C(Cc2cc(C)c3[nH]ncc3c2)OC(=O)N2CCC(c3cc4ccccc4[nH]c3=O)CC2)n1` (stereo not drawn) [Example 62, 1-(4,6-Dimethylpyrimidin-2-yl)-2-(7-methyl-1H-indazol-5-yl)ethyl 4-(2-oxo-1,2-dihydroquinolin-3-yl)piperidine-1-carboxylate], 100 to 1000 nM. Under `Cc1cc(C)nc(C(Cc2cc(C)c3[nH]ncc3c2)OC(=O)N2CCC(N3Cc4cccc(F)c4NC3=O)CC2)n1` (stereo not drawn) [Example 63, 1-(4,6-Dimethylpyrimidin-2-yl)-2-(7-methyl-1H-indazol-5-yl)ethyl 4-(8-fluoro-2-oxo-1,2-dihydroquinazolin-3(4H)-yl)piperidine-1-carboxylate] stands 100 to 1000 nM. With `Cc1cc(CC(OC(=O)N2CCC(N3Cc4ccccc4NC3=O)CC2)c2cc3ccccc3o2)cc2cn[nH]c12` (stereo not drawn) [Example 64, 1-(Benzofuran-2-yl)-2-(7-methyl-1H-indazol-5-yl)ethyl 4-(2-oxo-1,2-dihydroquinazolin-3(4H)-yl)piperidine-1-carboxylate] the figure was 10 to 100 nM; with `Cc1cc(C[C@@H](OC(=O)N2CCC(c3cc4ccccc4[nH]c3=O)CC2)c2nccn2Cc2cc(F)cc(F)c2)cc2cn[nH]c12` [Example 78, (R)-1-(1-(3,5-difluorobenzyl)-1H-imidazol-2-yl)-2-(7-methyl-1H-indazol-5-yl)ethyl 4-(2-oxo-1,2-dihydroquinolin-3-yl)piperidine-1-carboxylate], less than 10 nM; with `Cc1cc(C[C@@H](NC(=O)N2CCC(N3Cc4ccccc4NC3=O)CC2)c2ncc3ccccn23)cc2cn[nH]c12` [Example 85, (R)-N-(1-(H-Imidazo[1,5-a]pyridin-3-yl)-2-(7-methyl-1H-indazol-5-yl)ethyl)-4-(2-oxo-1,2-dihydroquinazolin-3(4H)-yl)piperidine-1-carboxamide], less than 10 nM. `CC1=CC(CC(CC(=O)N2CCC(N3Cc4ccccc4NC3=O)CC2)c2nccn2Cc2ccc(C(C)(C)C)cc2)=CC2C=NNC12` (stereo not drawn) [Example 95, 3-(1-(3-(1-(4-tert-Butylbenzyl)-1H-imidazol-2-yl)-4-(7-methyl-3a,7a-dihydro-1H-indazol-5-yl)butanoyl)piperidin-4-yl)-3,4-dihydroquinazolin-2(1H)-one]: the half-maximal inhibitory concentration (IC50) is less than 10 nM.
